# Test results: patent publication US10786475B2, “Method for preventing, treating, or improving fatty liver by administering effective amounts of azelaic acid to a subject” (Korea University Research and Business Foundation, priority 2018, dated 2020)
# Experiments:
# PPARα = target: T1, PPARα (Mus musculus, UniProt P23204); assay: PPRE-luciferase assay in HEK293 cells; type: cell-based; settings: HEK293 cells transfected with pSG5-PPAR alpha, various concentrations of AzA
# T1 construct: host or cells: HEK293 cells (Korean Cell Line Bank)
# T1 sequence (P23204 1-468): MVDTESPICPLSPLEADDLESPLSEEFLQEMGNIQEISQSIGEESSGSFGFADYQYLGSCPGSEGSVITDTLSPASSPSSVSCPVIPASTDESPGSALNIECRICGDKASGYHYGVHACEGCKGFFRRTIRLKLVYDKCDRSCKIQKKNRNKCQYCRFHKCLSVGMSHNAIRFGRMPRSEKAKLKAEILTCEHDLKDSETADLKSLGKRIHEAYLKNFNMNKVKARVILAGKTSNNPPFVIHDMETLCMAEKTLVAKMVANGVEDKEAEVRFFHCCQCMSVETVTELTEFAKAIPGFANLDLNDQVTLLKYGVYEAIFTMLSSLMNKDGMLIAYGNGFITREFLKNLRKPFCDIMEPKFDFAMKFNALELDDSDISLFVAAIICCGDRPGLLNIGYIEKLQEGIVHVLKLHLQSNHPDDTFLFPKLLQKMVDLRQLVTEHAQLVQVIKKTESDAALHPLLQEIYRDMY
# Method: To measure PPRE-luciferase, HEK293 cells (Korean Cell Line Bank) seeded on a 24-well plate at […] cells/well were used. pSG5-PPAR alpha (Addgene, MA, USA) was co-transfected according to a given protocol using pCMV-3×PPRE-Luc, a Renilla expression vector and Lipofectamine 2000 (Invitrogen). After 24-hour post-transfection, the cells were treated with various concentrations of an AzA, and then analyzed using a dual luciferase assay kit (Promega, Fitchburg, Wis., USA) and Victor X2 (PerkinElmer, Santa Clara, Calif.). A luciferase fluorescent signal was standardized using Renilla.
# LPS mouse = assay: LPS-induced inflammation in C57BL/6J male mouse, liver gene expression; type: in vivo; settings: AzA 100 mg/kg, LPS 10 mg/kg intraperitoneally, liver 16 hours after LPS
# Method: Eight-week-old C57BL/6J male […] were purchased from Samtako (Gyeonggi-do, Korea). All experiments were carried out according to protocols approved by the Animal Experiment Committee of Korea University (Protocol No. KUIACUC-20090420-4). Mice were maintained under a 12-hour photoperiod at 21 to 25° C. and relative humidity of 50% to 60%. In normal groups and LPS-induced groups, 100 μL of deionized water was administered to each mouse using an oral sonde for 4 days, and 100 μL of LPS was intraperitoneally injected at a dose of 10 mg/kg one hour after the administration with deionized water on the last day, Day 4. In a group into which LPS was administered after the AzA administration, each mouse was orally administered 100 μL of AzA at a dose of 100 mg/kg for 4 days, and intraperitoneally injected with 100 μL of 10 mg/kg LPS one hour after the AzA administration on the last day, Day 4. Sixteen hours after the LPS intraperitoneal injection, the mice were anesthetized with avertin, and dissected to extract liver tissue. The liver tissue was obtained, immediately stored in liquid nitrogen, and then stored at −80° C.
# 1 μg of RNA extracted from the stored liver tissue was used to synthesize cDNA using a ReverTra Ace® qPCR RT kit (TOYOBO, Osaka, Japan). […]
compound,measurement,setting,value
"O=C(O)CCCCCCCC(=O)O [AzA, nonanedioic acid]",PPARα activity (PPRE-luciferase): direct ligand for PPARα,PPARα,does not act as a direct ligand for PPARα
same,gene expression levels of inflammatory cytokines IL-6 and TNF-α in liver tissue,LPS mouse,tendency of reduction in inflammatory responses
